This passage reports EC50, IC50 and AC50 results from ChEMBL document CHEMBL1201862, “PubChem BioAssay data set” (2004).

Assay [1] is described as follows: Luminescence Cell-Based Dose Response HTS to Identify Inhibitors of Luciferase Translation or Activity in H4-C Neuroglioblastoma Cells. [Related pubchem assays: 1813 (Primary HTS), 1827 (Project Summary)]. In kind it is functional.
The nature of assay [2]: Luminescence Cell-Based Dose Response HTS to Identify Activators of Luciferase Translation or Activity in H4-C Neuroglioblastoma Cells. [Related pubchem assays: 1829 (Project Summary), 1814 (Primary HTS)]. In kind it is functional.
Assay [3] is described as follows: inhibitors of firefly luciferase expression or activity, dose response, H4 neuroglioma cells, luminescence (AID 1990). In kind it is functional, cell-based.
Assay [4] can be described thus: Luminescence Cell-Based Dose Retest to Confirm Activators of 5'UTR Stem-Loop Driven Alpha-Synuclein mRNA Translation in H4 Neuroglioblastoma Cells. [Related pubchem assays (depositor defined):AID1813, AID1829]. In kind it is functional.
Assay [5] in a line: Luminescence Cell-Based Dose Response HTS to Identify Activators of 5'UTR Stem-Loop Driven Prion Protein mRNA Translation in H4-C Neuroglioblastoma Cells. [Related pubchem assays: 1829 (Project Summary), 1814 (Primary HTS)]. Format: functional.
Assay [6] is described as follows: Luminescence Cell-Based Dose HTS Response to Identify Inhibitors of 5'UTR Stem-Loop Driven Prion Protein mRNA Translation in H4-C Neuroglioblastoma Cells. [Related pubchem assays (depositor defined):AID1814, AID1827]. In kind it is functional.
The nature of assay [7]: Luminescence Cell-Based Dose Response HTS to Identify Inhibitors of 5'UTR Stem-Loop Driven Prion Protein mRNA Translation in H4 Neuroglioblastoma Cells. [Related pubchem assays: 1827 (Project Summary), 1813 (Primary HTS)]. Format: functional.
Assay [8] is described as follows: inhibitors of SNCA 5'UTR-driven reporter translation, confirmation, H4 neuroglioma cells, luminescence (AID 1988). Format: functional, cell-based.
A short description of assay [9]: Luminescence Cell-Based Dose Confirmation HTS to Identify Inhibitors of 5'UTR Stem-Loop Driven Alpha-Synuclein mRNA Translation in H4 Neuroglioblastoma Cells. [Related pubchem assays: 1827 (Project Summary), 1813 (Primary HTS)]. In kind it is functional.
Assay [10] can be described thus: cytotoxicity in HEK-293T cells, dose response, cytotoxicity control for TCR NF-kB inhibitor project, luminescence, T-cell screen hits (AID 489026).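 Note: cells exposed to compound about 14 hours before the viability readout.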 In kind it is functional, cell-based.
A short description of assay [11]: Shn3 3'UTR reporter inhibitors, dose response, cell-based, Clone20 osteoblasts, firefly luciferase, cherry-picked (AID 624132).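 Note: firefly luciferase luminescence from reporter carrying the Shn3 3'UTR in osteoblasts.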 Format: functional.
Assay [12] in a line: HepG2 cell cytotoxicity, dose response, cytotoxicity control for Shn3 inhibitor project, CellTiter-Glo, cherry-picked (AID 624134). Format: functional, cell-based.
Assay [13] in a line: control 3'UTR Renilla luciferase suppression, dose response, counter-screen for Shn3 inhibitor project, cell-based, Clone20-Shn3RL, cherry-picked (AID 624133). Format: functional.
The target in assay [14] is T1, E3 ubiquitin-protein ligase XIAP (Homo sapiens, UniProt P98170). Nature of the assay: Counter Screen using XIAP-Bir3 for Chemical Antagonists of Bir1/2 domains of IAP-family anti-apoptotic proteins. [Related pubchem assays (depositor defined):AID1018, AID1449, AID1514, AID1638, AID1749, AID1750, AID488957, AID488963]. (In general: The purpose of a counterscreen is to sort out artefacts and off-target activity.)
T1 sequence (P98170 whole entry): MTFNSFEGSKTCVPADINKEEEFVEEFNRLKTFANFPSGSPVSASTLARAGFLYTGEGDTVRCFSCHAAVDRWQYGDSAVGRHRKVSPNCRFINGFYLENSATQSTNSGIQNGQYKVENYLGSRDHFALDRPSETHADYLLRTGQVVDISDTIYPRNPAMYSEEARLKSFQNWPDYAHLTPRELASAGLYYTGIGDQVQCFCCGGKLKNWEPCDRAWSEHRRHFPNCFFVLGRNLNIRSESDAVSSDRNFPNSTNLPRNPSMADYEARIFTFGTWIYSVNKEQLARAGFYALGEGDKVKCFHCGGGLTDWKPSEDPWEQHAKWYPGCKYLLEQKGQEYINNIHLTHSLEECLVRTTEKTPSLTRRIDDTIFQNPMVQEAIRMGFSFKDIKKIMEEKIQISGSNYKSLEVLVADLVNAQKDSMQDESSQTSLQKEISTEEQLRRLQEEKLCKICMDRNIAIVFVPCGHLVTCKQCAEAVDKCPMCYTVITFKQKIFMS

For assay [15], the target named is T1, E3 ubiquitin-protein ligase XIAP. Nature of the assay: XIAP antagonists, biochemical, IAP family, fluorescence polarization (AID 1018). In kind it is functional. In general terms: Fluorescence polarisation rises when a labelled molecule tumbles more slowly, as on binding a larger partner.
Another assay deals with Trypsin (Sus scrofa, UniProt P00761). Nature of the assay: porcine trypsin inhibitors, dose response, selectivity assay for Rce1 protease inhibitor project, biochemical, quenched peptide fluorescence, cherry-pick (AID 488789).
Trypsin, sequence (P00761 whole entry): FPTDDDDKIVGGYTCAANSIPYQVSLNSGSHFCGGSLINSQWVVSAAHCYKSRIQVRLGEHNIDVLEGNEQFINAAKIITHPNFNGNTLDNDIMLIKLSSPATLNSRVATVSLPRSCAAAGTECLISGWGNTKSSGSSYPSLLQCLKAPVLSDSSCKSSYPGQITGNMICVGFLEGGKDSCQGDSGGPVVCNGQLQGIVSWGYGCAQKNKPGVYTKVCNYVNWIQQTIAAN
The next assay has as its target T2, CAAX prenyl protease 2 (Saccharomyces cerevisiae S288c, UniProt Q03530).
T2 sequence (Q03530 whole entry): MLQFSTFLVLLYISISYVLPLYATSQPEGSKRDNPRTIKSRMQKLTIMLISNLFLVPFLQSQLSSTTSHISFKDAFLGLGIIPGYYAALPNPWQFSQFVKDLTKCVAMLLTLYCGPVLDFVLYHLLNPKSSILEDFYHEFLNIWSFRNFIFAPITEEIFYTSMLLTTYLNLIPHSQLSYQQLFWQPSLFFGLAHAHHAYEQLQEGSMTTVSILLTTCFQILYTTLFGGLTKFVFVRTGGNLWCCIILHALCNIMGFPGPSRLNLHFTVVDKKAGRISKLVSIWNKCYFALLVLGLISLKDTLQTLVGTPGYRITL
In kind it is biochemical.

Assay [16] can be described thus: mammalian cell cytotoxicity, dose response, cytotoxicity control, plate reader, cherry-pick samples (AID 504397). Format: functional, cell-based.
Assay [17] deals with Sphingosine 1-phosphate receptor 5 (Homo sapiens, UniProt Q9H228). In words: Late-stage fluorescence-based dose-response cell-based assay to identify agonists of the Sphingosine 1-Phosphate Receptor 4 (S1P4): Sphingosine 1-Phosphate Receptor 5 (S1P5) counterscreen assay. [Related pubchem assays (depositor defined):AID1509, AID1523, AID1563, AID1686, AID1701, AID1801, AID463107, AID463225, AID504400]. In kind it is functional.
Sphingosine 1-phosphate receptor 5, sequence (Q9H228 whole entry): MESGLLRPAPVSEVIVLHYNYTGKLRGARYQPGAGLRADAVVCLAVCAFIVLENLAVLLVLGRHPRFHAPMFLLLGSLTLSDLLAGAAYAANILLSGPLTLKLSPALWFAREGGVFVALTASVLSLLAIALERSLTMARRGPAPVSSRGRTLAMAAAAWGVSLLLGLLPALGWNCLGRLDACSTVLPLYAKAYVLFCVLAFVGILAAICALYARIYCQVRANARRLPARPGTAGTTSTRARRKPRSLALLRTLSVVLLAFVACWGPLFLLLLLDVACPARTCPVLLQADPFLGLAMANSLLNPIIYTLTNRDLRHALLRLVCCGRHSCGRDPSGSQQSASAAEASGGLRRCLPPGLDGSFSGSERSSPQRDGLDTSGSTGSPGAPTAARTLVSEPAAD

In assay [18] the target is Sphingosine 1-phosphate receptor 1 (Homo sapiens, UniProt P21453). In words: Late-stage fluorescence-based dose-response cell-based assay to identify agonists of the Sphingosine 1-Phosphate Receptor 4 (S1P4): Sphingosine 1-Phosphate Receptor 1 (S1P1) counterscreen assay. [Related pubchem assays (depositor defined):AID1509, AID1523, AID1563, AID1686, AID1701, AID1801, AID463107, AID463225, AID504400]. Format: functional.
Sphingosine 1-phosphate receptor 1, sequence (P21453 whole entry): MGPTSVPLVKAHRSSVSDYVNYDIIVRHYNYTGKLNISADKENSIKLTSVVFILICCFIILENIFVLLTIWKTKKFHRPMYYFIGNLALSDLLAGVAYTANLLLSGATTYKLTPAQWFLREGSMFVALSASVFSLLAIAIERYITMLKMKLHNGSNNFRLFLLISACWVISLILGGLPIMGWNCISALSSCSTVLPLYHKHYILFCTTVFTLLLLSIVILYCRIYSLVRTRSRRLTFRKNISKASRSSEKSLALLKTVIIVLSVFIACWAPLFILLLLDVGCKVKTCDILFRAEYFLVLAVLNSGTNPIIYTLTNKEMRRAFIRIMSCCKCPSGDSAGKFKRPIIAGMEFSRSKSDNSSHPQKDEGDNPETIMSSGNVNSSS

Assay [19] has as its target Sphingosine 1-phosphate receptor 2 (Homo sapiens, UniProt O95136). In words: Late-stage fluorescence-based dose-response cell-based assay to identify agonists of the Sphingosine 1-Phosphate Receptor 4 (S1P4): Sphingosine 1-Phosphate Receptor 2 (S1P2) counterscreen assay. [Related pubchem assays (depositor defined):AID1509, AID1523, AID1563, AID1686, AID1701, AID1801, AID463107, AID463225, AID504400]. Format: functional.

The target in assay [20] is Sphingosine 1-phosphate receptor 3 (Homo sapiens, UniProt Q99500). Nature of the assay: Late-stage fluorescence-based dose-response cell-based assay to identify agonists of the Sphingosine 1-Phosphate Receptor 4 (S1P4): Sphingosine 1-Phosphate Receptor 3 (S1P3) counterscreen assay. [Related pubchem assays (depositor defined):AID1509, AID1523, AID1563, AID1686, AID1701, AID1801, AID463107, AID463225, AID504400]. Format: functional.
Sphingosine 1-phosphate receptor 3, sequence (Q99500 whole entry): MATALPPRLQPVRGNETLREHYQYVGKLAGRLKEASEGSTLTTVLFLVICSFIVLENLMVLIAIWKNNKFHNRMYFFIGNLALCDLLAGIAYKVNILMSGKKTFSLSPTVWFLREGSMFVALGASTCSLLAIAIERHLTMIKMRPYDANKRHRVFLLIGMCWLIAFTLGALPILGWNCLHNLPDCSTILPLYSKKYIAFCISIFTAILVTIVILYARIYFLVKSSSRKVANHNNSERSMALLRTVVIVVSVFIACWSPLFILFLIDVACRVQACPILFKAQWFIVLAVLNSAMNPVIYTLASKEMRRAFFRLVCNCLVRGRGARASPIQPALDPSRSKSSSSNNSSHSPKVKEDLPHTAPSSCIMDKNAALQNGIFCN

Assay [21] has as its target T3, G-protein coupled receptor 35 (Homo sapiens, UniProt Q9HC97). In words: SAR analysis of Agonists of the GPR35 Receptor using an Image-Based Assay - Set 4. [Related pubchem assays (depositor defined):AID2013, AID2026]. Format: functional.
For assay [22], the target named is T4, Cannabinoid receptor 1 (Homo sapiens, UniProt P21554). Nature of the assay: SAR analysis of agonists of the Cannabinoid Receptor 1 using an Image-Based Assay - Set 4. [Related pubchem assays (depositor defined):AID2013, AID2026]. In kind it is functional.
T4 sequence (P21554 whole entry): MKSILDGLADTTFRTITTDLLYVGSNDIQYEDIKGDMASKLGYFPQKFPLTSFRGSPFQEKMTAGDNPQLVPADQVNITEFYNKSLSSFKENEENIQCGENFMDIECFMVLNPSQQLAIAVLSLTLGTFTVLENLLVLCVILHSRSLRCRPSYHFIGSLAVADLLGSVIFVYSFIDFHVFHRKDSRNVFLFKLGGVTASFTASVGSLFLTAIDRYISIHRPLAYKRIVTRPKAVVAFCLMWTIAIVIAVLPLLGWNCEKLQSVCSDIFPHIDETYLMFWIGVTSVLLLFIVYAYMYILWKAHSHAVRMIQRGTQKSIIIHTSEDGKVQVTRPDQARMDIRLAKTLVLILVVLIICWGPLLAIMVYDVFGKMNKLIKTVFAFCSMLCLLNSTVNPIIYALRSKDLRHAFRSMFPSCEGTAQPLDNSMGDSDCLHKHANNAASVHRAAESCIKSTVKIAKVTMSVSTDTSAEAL
Assay [23] addresses T3, G-protein coupled receptor 35. In words: SAR analysis of Antagonists of the GPR35 Receptor using an Image-Based Assay - Set 6. [Related pubchem assays (depositor defined):AID2013, AID2026]. Format: functional.
The target of assay [24] is T4, Cannabinoid receptor 1. In words: SAR analysis of antagonists of the Cannabinoid Receptor 1 using an Image-Based Assay - Set 4. [Related pubchem assays (depositor defined):AID2013, AID2026]. Format: functional.
Assay [25] addresses G-protein coupled receptor 55 (Homo sapiens, UniProt Q9Y2T6). In words: SAR Analysis of Selective Antagonists of GPR55 using an Image-Based Assay - Set 4. [Related pubchem assays (depositor defined):AID2013, AID2026]. In kind it is functional.
Assay [26] concerns the target T5, Cannabinoid receptor 2 (Homo sapiens, UniProt P34972). Nature of the assay: SAR analysis of antagonists of the Cannabinoid Receptor 2 using an Image-Based Assay - Set 3. [Related pubchem assays (depositor defined):AID2013, AID2026]. Format: functional.
Assay [27] has as its target T5, Cannabinoid receptor 2. Nature of the assay: SAR analysis of agonists of the Cannabinoid Receptor 2 using an Image-Based Assay - Set 3. [Related pubchem assays (depositor defined):AID2013, AID2026]. In kind it is functional.

Activity calls are given as the source filed them.

Broadly, the EC50 is the concentration needed to bring the measured effect to its halfway point. Broadly, the IC50 is the concentration that gives 50% inhibition. Broadly, the AC50 is the midpoint of the concentration-response curve, whichever way the signal moves.

T3 sequence (Q9HC97 whole entry): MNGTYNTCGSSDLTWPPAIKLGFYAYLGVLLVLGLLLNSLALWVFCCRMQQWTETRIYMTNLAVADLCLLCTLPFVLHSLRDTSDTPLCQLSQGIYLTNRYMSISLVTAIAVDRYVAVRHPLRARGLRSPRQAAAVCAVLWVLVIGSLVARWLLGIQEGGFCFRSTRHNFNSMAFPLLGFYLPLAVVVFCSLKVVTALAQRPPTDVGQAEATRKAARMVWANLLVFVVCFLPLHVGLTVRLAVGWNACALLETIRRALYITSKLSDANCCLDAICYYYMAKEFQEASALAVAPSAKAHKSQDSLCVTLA
T5 sequence (P34972 whole entry): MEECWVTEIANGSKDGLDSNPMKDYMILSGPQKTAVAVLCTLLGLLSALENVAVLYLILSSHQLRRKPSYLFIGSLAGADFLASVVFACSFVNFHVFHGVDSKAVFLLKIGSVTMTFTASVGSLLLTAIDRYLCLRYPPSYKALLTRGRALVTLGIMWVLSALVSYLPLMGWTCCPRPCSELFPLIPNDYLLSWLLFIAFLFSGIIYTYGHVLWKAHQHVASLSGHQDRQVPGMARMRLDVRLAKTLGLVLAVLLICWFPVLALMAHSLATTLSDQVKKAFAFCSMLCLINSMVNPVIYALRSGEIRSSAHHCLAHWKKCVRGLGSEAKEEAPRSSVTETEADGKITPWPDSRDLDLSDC
Sphingosine 1-phosphate receptor 2, sequence (O95136 whole entry): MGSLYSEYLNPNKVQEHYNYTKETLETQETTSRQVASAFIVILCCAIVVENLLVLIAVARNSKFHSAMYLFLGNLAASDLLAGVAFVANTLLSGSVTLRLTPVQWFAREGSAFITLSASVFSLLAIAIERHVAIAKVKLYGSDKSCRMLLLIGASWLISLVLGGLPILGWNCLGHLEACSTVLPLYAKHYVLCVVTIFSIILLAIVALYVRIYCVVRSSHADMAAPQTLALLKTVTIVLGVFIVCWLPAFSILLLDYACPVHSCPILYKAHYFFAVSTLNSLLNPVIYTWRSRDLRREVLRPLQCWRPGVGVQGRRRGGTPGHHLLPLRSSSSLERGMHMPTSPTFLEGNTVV
G-protein coupled receptor 55, sequence (Q9Y2T6 whole entry): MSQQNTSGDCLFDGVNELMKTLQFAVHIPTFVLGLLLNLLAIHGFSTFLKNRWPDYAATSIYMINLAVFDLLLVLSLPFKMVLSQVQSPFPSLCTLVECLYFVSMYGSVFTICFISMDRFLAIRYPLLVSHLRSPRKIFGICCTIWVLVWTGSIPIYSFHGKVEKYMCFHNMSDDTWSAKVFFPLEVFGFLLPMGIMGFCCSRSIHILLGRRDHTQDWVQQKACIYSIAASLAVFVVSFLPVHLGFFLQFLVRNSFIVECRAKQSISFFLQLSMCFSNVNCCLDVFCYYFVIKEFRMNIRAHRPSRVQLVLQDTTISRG

With `CCCOc1ccccc1C1CC(=O)Nc2cc3c(cc21)OCO3` (centres undefined), the concentration for a half-maximal effect (EC50) in [1] was 2.97 µM (active); in assay [2], 2.97 µM (inconclusive); in assay [3], 3.65 µM (inconclusive); in [4], 35.8 µM (inconclusive); in [5] it was 2.4 µM (inconclusive); in [6] it was 2.4 µM (active). Besides, the EC50 was > 120 µM (not active) in [7], 0.158 µM (active) in assay [8] and 35.8 µM (active) in assay [9]. Besides, the IC50 in assay [10] is 60.1 µM (inactive). For the same compound, the figures for the AC50 in assay [11], in assay [12] and in assay [13] were 5.72 µM (active), > 70 µM (inactive) and 15.3 µM (active), respectively.

In the case of `CSc1nc(N)nc(SCC(=O)Nc2cccc(F)c2)c1C#N`, the results for the IC50 in assay [14] and in assay [15] were > 100 µM (inactive) and > 100 µM (not active), respectively.

On to `COc1cccc(C2CC(c3ccc(Br)cc3)=NN2C(=O)c2ccncc2)c1OC` (centres undefined), for which the results for the AC50 (on Trypsin; at CAAX prenyl protease 2; in assay [16]) were 48.7 µM (active), 3.7 µM (active) and 45.2 µM (active), respectively.

`Cc1ccc(OCCOc2c(Cl)cc(Cl)cc2Cl)c([N+](=O)[O-])n1`: the EC50 in assay [17], in assay [18], in assay [19] and in assay [20] was > 50 µM (inactive) in each case.

With `N=c1c(C(=O)NC2CCCCC2)cc2c(=O)n3ccccc3nc2n1C1CCCC1`, the EC50 (in assay [21]; on Cannabinoid receptor 1 [22]; at Cannabinoid receptor 2 [27]) was > 32 µM (inactive) each time. Further, the IC50 is > 32 µM (inactive) in assay [23], > 32 µM (inactive) on Cannabinoid receptor 1 [24], 29 µM (inactive) in assay [25] and > 32 µM (inactive) on Cannabinoid receptor 2 [26].
